From US10336761B2, “TGFβ receptor antagonist” (BRISTOL-MYERS SQUIBB COMPANY, priority 2015, dated 2019)

Target: HIS-TGFβR1 T204D (Homo sapiens (Human), UniProt P36897, T204D)
Assay: HTRF probe-displacement assay, HIS-TGFβR1 T204D
Type: binding
Conditions: 1 hour at room temperature

Sequence of HIS-TGFβR1 T204D (P36897 34-503 T204D): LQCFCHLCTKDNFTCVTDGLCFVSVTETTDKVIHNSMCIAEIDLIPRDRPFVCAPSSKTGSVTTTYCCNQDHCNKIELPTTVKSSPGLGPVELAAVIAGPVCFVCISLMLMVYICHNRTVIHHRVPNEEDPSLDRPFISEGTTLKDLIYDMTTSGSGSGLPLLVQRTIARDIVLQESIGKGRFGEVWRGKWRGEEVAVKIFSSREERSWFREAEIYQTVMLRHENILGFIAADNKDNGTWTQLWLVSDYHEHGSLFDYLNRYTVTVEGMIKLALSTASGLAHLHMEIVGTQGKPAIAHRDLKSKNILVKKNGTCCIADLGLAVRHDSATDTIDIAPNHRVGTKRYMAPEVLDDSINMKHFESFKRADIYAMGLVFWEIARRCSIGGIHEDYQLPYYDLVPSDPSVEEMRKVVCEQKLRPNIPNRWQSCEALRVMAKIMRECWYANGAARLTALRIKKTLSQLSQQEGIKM

SMILES | IC50 [nM]
COc1cccc(-c2nc(Nc3ccncc3F)c3c(C(O)CNCCN4CCCCC4)ccn3n2)n1 (centres unmarked) [Example 130, 1-{4-[(3-fluoropyridin-4-yl)amino]-2-(6-methoxypyridin-2-yl)pyrrolo[2,1-f][1,2,4]triazin-5-yl}-2-{[2-(piperidin-1-yl)ethyl]amino}ethan-1-ol] | 540
Cc1cccc(-c2nc(Nc3ccncc3C(=O)NCCCN3CCCC3)c3cccn3n2)n1 [Example 221, 4-{[2-(6-methylpyridin-2-yl)pyrrolo[2,1-f][1,2,4]triazin-4-yl]amino}-N-[3-(pyrrolidin-1-yl)propyl]pyridine-3-carboxamide] | 4
Fc1cnccc1Nc1nc(-c2ccccn2)nn2ccc(CNC3CCCNC3)c12 (centres unmarked) [Example 267, 3-fluoro-N-(5-{[(piperidin-3-yl)amino]methyl}-2-(pyridin-2-yl)pyrrolo[2,1-f][1,2,4]triazin-4-yl)pyridin-4-amine] | 2.4
OCCN1CCN(Cc2ccn3nc(-c4ccccn4)nc(Nc4ccncc4F)c23)CC1 [Example 231, 2-[4-({4-[(3-fluoropyridin-4-yl)amino]-2-(pyridin-2-yl)pyrrolo[2,1-f][1,2,4]triazin-5-yl}methyl)piperazin-1-yl]ethan-1-ol] | 2.3
Fc1cnccc1Nc1nc(-c2ccccn2)nn2ccc(CNCCC3CCCN3)c12 (centres unmarked) [Example 270, 3-fluoro-N-[2-(pyridin-2-yl)-5-({[2-(pyrrolidin-2-yl)ethyl]amino}methyl)pyrrolo[2,1-f][1,2,4]triazin-4-yl]pyridin-4-amine] | 3.6
CC(=O)Nc1cc(Nc2nc(-c3cccc(F)n3)nn3cccc23)ccn1 [Example 291, N-(4-{[2-(6-fluoropyridin-2-yl)pyrrolo[2,1-f][1,2,4]triazin-4-yl]amino}pyridin-2-yl)acetamide] | 0.86
COc1cccc(-c2nc(Nc3ccnc(NCCN4CCOCC4)c3)c3c(C)ccn3n2)n1 [Example 137, 4-N-[2-(6-methoxypyridin-2-yl)-5-methylpyrrolo[2,1-f][1,2,4]triazin-4-yl]-2-N-[2-(morpholin-4-yl)ethyl]pyridine-2,4-diamine] | 120
FC(F)c1cccc(-c2nc(Nc3ccncc3Cl)c3cccn3n2)n1 [Example 80, 3-chloro-N-{2-[6-(difluoromethyl)pyridin-2-yl]pyrrolo[2,1-f][1,2,4]triazin-4-yl}pyridin-4-amine] | 1.1
Fc1cnccc1Nc1nc(-c2ccccn2)nn2ccc(CNC3CNC3)c12 [Example 311, N-(5-{[(azetidin-3-yl)amino]methyl}-2-(pyridin-2-yl)pyrrolo[2,1-f][1,2,4]triazin-4-yl)-3-fluoropyridin-4-amine] | 13
COc1cccc(-c2nc(Nc3ccnc(N4CCOCC4)c3)c3cccn3n2)n1 [Example 99, N-[2-(6-methoxypyridin-2-yl)pyrrolo[2,1-f][1,2,4]triazin-4-yl]-2-(morpholin-4-yl)pyridin-4-amine] | 2900
Fc1cnccc1Nc1nc(-c2ccccn2)nn2ccc(CNCC3CNCCO3)c12 (centres unmarked) [Example 299, 3-fluoro-N-(5-{[(morpholin-2-ylmethyl)amino]methyl}-2-(pyridin-2-yl)pyrrolo[2,1-f][1,2,4]triazin-4-yl)pyridin-4-amine] | 23
Fc1cnccc1Nc1nc(-c2ccccn2)nn2ccc(CNCCN3CCNCC3)c12 [Example 269, 3-fluoro-N-[5-({[2-(piperazin-1-yl)ethyl]amino}methyl)-2-(pyridin-2-yl)pyrrolo[2,1-f][1,2,4]triazin-4-yl]pyridin-4-amine] | 4.2
CCNc1cc(Nc2nc(-c3ccccn3)nn3ccc(CNCC(C)(C)O)c23)ccn1 [Example 258, 1-{[(4-{[2-(ethylamino)pyridin-4-yl]amino}-2-(pyridin-2-yl)pyrrolo[2,1-f][1,2,4]triazin-5-yl)methyl]amino}-2-methylpropan-2-ol] | 4.5
Cc1nc2ccc(NCc3ccn4nc(-c5ccccn5)nc(Nc5ccncc5F)c34)cc2s1 [Example 295, N-({4-[(3-fluoropyridin-4-yl)amino]-2-(pyridin-2-yl)pyrrolo[2,1-f][1,2,4]triazin-5-yl}methyl)-2-methyl-1,3-benzothiazol-6-amine] | 30
CCc1cc2c(Nc3ccncc3F)nc(-c3cccc(OC)n3)nn2c1 [Example 42, N-[6-ethyl-2-(6-methoxypyridin-2-yl)pyrrolo[2,1-f][1,2,4]triazin-4-yl]-3-fluoropyridin-4-amine] | 160
OC1CCN(Cc2ccn3nc(-c4ccccn4)nc(Nc4ccncc4F)c23)CC1 [Example 243, 1-({4-[(3-fluoropyridin-4-yl)amino]-2-(pyridin-2-yl)pyrrolo[2,1-f][1,2,4]triazin-5-yl}methyl)piperidin-4-ol] | 0.58
N#Cc1cc(Nc2nc(-c3cccc(C(F)(F)F)n3)nn3cccc23)ccn1 [Example 292, 4-({2-[6-(trifluoromethyl)pyridin-2-yl]pyrrolo[2,1-f][1,2,4]triazin-4-yl}amino)pyridine-2-carbonitrile] | 360
COc1cccc(-c2nc(Nc3ccnc(C)c3)c3cccn3n2)n1 [Example 92, N-[2-(6-methoxypyridin-2-yl)pyrrolo[2,1-f][1,2,4]triazin-4-yl]-2-methylpyridin-4-amine] | 1500

SMILES | IC50 [nM]
COc1cccc(-c2nc(Nc3ccnc(NCCCN(C)C)c3)c3cccn3n2)n1 [Example 135, 2-N-[3-(dimethylamino)propyl]-4-N-[2-(6-methoxypyridin-2-yl)pyrrolo[2,1-f][1,2,4]triazin-4-yl]pyridine-2,4-diamine] | 88
CSc1nccc(-c2nc(Nc3ccncc3)c3cccn3n2)n1 [Example 215, N-{2-[2-(methylsulfanyl)pyrimidin-4-yl]pyrrolo[2,1-f][1,2,4]triazin-4-yl}pyridin-4-amine] | 6.9
O[C@@H]1CCN(Cc2ccn3nc(-c4ccccn4)nc(Nc4ccncc4F)c23)C1 [Example 233, (3R)-1-({4-[(3-fluoropyridin-4-yl)amino]-2-(pyridin-2-yl)pyrrolo[2,1-f][1,2,4]triazin-5-yl}methyl)pyrrolidin-3-ol] | 0.85
O=C(N[C@H]1CCC[C@@H]1O)c1cnccc1Nc1nc(-c2cccc(C(F)F)n2)nn2cccc12 [Example 199, 4-({2-[6-(difluoromethyl)pyridin-2-yl]pyrrolo[2,1-f][1,2,4]triazin-4-yl}amino)-N-[(1S,2S)-2-hydroxycyclopentyl]pyridine-3-carboxamide] | 61
O=C(NCc1ccccn1)c1cnccc1Nc1nc(-c2cccc(C(F)F)n2)nn2cccc12 [Example 181, 4-({2-[6-(difluoromethyl)pyridin-2-yl]pyrrolo[2,1-f][1,2,4]triazin-4-yl}amino)-N-(pyridin-2-ylmethyl)pyridine-3-carboxamide] | 32
COc1cccc(-c2nc(Nc3ccncc3F)c3c(C(O)CN4CCC(N(C)C)CC4)ccn3n2)n1 (centres unmarked) [Example 30, 2-[4-(dimethylamino)piperidin-1-yl]-1-{4-[(3-fluoropyridin-4-yl)amino]-2-(6-methoxypyridin-2-yl)pyrrolo[2,1-f][1,2,4]triazin-5-yl}ethan-1-ol] | 260
COCC(=O)Nc1cc(Nc2nc(-c3cccc(C(F)(F)F)n3)nn3cccc23)ccn1 [Example 336, 2-methoxy-N-[4-({2-[6-(trifluoromethyl)pyridin-2-yl]pyrrolo[2,1-f][1,2,4]triazin-4-yl}amino)pyridin-2-yl]acetamide] | 1.6
O[C@H]1CCN(Cc2ccn3nc(-c4cccc(C(F)F)n4)nc(Nc4ccncc4F)c23)C1 [Example 251, (3S)-1-({2-[6-(difluoromethyl)pyridin-2-yl]-4-[(3-fluoropyridin-4-yl)amino]pyrrolo[2,1-f][1,2,4]triazin-5-yl}methyl)pyrrolidin-3-ol] | 0.59
COc1nc(-c2nc(Nc3ccncc3F)c3cccn3n2)cs1 [Example 249, 3-fluoro-N-[2-(2-methoxy-1,3-thiazol-4-yl)pyrrolo[2,1-f][1,2,4]triazin-4-yl]pyridin-4-amine] | 5.8
Fc1cnccc1Nc1nc(-c2ccccn2)nn2ccc(CNCC(F)(F)F)c12 [Example 268, 3-fluoro-N-[2-(pyridin-2-yl)-5-{[(2,2,2-trifluoroethyl)amino]methyl}pyrrolo[2,1-f][1,2,4]triazin-4-yl]pyridin-4-amine] | 1.1
Cc1cncc(-c2nc(Nc3ccncc3F)c3cccn3n2)n1 [Example 71, 3-fluoro-N-[2-(6-methylpyrazin-2-yl)pyrrolo[2,1-f][1,2,4]triazin-4-yl]pyridin-4-amine] | 96
O=C(NCc1ccn[nH]1)c1cnccc1Nc1nc(-c2cccc(C(F)F)n2)nn2cccc12 [Example 197, 4-({2-[6-(difluoromethyl)pyridin-2-yl]pyrrolo[2,1-f][1,2,4]triazin-4-yl}amino)-N-(1H-pyrazol-5-ylmethyl)pyridine-3-carboxamide] | 42
Cc1cccc(-c2nc(Nc3ccncc3)c3cc(C(N)=O)cn3n2)n1 [Example 219, 2-(6-methylpyridin-2-yl)-4-[(pyridin-4-yl)amino]pyrrolo[2,1-f][1,2,4]triazine-6-carboxamide] | 10
COc1cccc(-c2nc(Nc3ccnc(NCCN4CCC(O)CC4)c3)c3cccn3n2)n1 [Example 132, 1-{2-[(4-{[2-(6-methoxypyridin-2-yl)pyrrolo[2,1-f][1,2,4]triazin-4-yl]amino}pyridin-2-yl)amino]ethyl}piperidin-4-ol] | 700
COc1cccc(-c2nc(Nc3ccncc3C(F)F)c3cccn3n2)n1 [Example 15, 3-(difluoromethyl)-N-[2-(6-methoxypyridin-2-yl)pyrrolo[2,1-f][1,2,4]triazin-4-yl]pyridin-4-amine] | 10
Cc1cccc(-c2nc(Nc3ccncc3OCCCN3CCOCC3)c3cccn3n2)n1 [Example 222, N-[2-(6-methylpyridin-2-yl)pyrrolo[2,1-f][1,2,4]triazin-4-yl]-3-[3-(morpholin-4-yl)propoxy]pyridin-4-amine] | 67
COc1cccc(-c2nc(Nc3ccncc3NC(=O)CN3CCOCC3)c3cccn3n2)n1 [Example 212, N-(4-{[2-(6-methoxypyridin-2-yl)pyrrolo[2,1-f][1,2,4]triazin-4-yl]amino}pyridin-3-yl)-2-(morpholin-4-yl)acetamide] | 3000
